Test results from US20020198373A1, “PARTICULATE DRUG CARRIERS” (priority 1997, published 2002).

Tested on: human erythrocytes
Assay: Haemocompatibility study (haemolysis)
Assay type: cell-based
Conditions: erythrocyte, 5 h, relative to triton X-100 100% and PBS 0%
Description: Freshly drawn human blood was centrifuged (3,000 g) to separate the red blood cells. These were washed in PBS (pH=7.4) and weighed. 3 g of the erythrocyte pellet was dispersed in 100 mL PBS (pH=7.4) and incubated for 5 h with various concentrations of GCP41, cholesterol vesicles prepared as described above or DOTAP vesicles (Sigma Chemical Co., UK). Haemolysis was assessed by centrifugation (3,000 g) to isolate the released haemoglobin, addition of 2×volume of isopropanol to the supernatant and the measurement of the absorbance (570 nm).

CCCCCCCC/C=C\CCCCCCCC(=O)OCC(C[N+](C)(C)C)OC(=O)CCCCCCC/C=C\CCCCCCCC.COS(=O)(=O)[O-] (centres unmarked) [DOTAP, N-[1-(2,3-dioleoyloxy)propyl]-N,N,N-trimethylammonium methylsulphate]
% Haemolysis (n = 3) (DOTAP ratio 30): 101.4 ± 20.4% | % Haemolysis (n = 3) (DOTAP ratio 300): 71.0 ± 10.6%
